Data from patent publication US6750211B2, “Diimino compounds for use as modulators of cell regulation” (Emory University, priority 1999, dated 2004).

System: J774A.1 cells
Assay: Suppression of the sphingosine "burst" on change to new medium
Type: cell-based, murine
Procedure: J774A.1 cells (No. TIB 67, a murine macrophage-like transformed cell line) were obtained from the American Type Culture Collection (Rockville, Md.) and grown in DMEM and 10% FBS and sodium bicarbonate (3.7 g/l) in a spinner flask at 37° C. and an atmosphere of 5% CO2. Cells were passaged every two to three days by a 1:4 dilution with fresh medium to a density of approximately 2.5×10^5 cells/ml. Cells were used between passages 3 and 24.
Unless indicated differently, suspended cells were removed from the spinner flask, collected by gentle centrifugation (in a table top centrifuge), resuspended in new medium, added to 60 mm tissue culture dishes at 5 to 7.5×10^5 cells per 2 ml of medium. Under these conditions, the cells adhere to the dish rather than grow in suspension. The cells were incubated at 37° C., 5% CO2, for three days before beginning by removing the conditioned medium and adding fresh medium to initiate the “burst”.
After incubation of the cells, the medium was removed, 0.5 ml of ice-cold methanol added, and the cells scraped from the dishes with a rubber spatula. The plates were scraped again with 0.4 ml of deionized water, followed by 0.4 ml of methanol. Cells and washes were pooled in 13×100 mm test tubes, 200 to 300 pmol of C20-sphinganine added as an internal standard, and the long-chain bases extracted- and analyzed by HPLC (as described by Merrill, A. H., Jr., et al., (1988) Anal. Biochem. 171, 373-381) with C20-sphinganine as an internal standard.

Row | Structure (SMILES) | share of the suppression of the sphingosine burst accounted for by the ammonia concentration of conditioned medium (at most time points, calculated from FIGS. 6A and B, FIG. 7) | suppression of the sphingosine burst (in words) (sphingosine measured after adding medium to J774 cells) | IC50 (Mus musculus, J774.A1, titration with purified fraction III added with DMEM, concentration approximated from TNBS amine estimate, FIG. 9, read-out: apparent concentration for 50% suppression of the sphingosine burst) [µM] | fold more concentrated than conditioned medium (volume to volume comparison of amount needed to suppress the burst) (compared with conditioned medium) | volume giving 50% suppression of the sphingosine burst (purified fraction III (amine concentration about 200 mM) added with DMEM, FIG. 9) [µL]
1 | N [NH4^+, reference compound] | greater than 50% | shown to suppress the sphingosine burst |  |  | 
2 | N=C1NC(=N)C(CCCCN)NC1CCCCN (single isomer, unassigned) [fraction III, 2,6-bis-(ω-aminobutyl)-3,5-diimino-piperazine] |  |  | 1000 to 3000 | greater than 200 fold | 30
